Measured values reported in patent US20220079910A1, “Cancer Treatment Useing Docetaxel by Controlling Peak Plasma Levels” (Modra Pharmaceuticals B.V., priority 2018, published 2022).
Like-named read-outs stand apart in the source and are kept apart here.

How the values were obtained:
[1] = test system: metastasized castration-resistant prostate cancer (mCRPC); experiment: Phase IB/IIA study in mCRPC (M17DOC): PSA response, radiological response, treatment cycles; format: in vivo, human; details: FIG. 3 / FIG. 6; target range 500-1500 h*ng/mL (FIG. 6)
Description: In FIG. 8 a plot is shown of the number of treatment cycles (with a maximum of 30) in a multicenter clinical phase IB study in mCRPC (M17DOC) of evaluable patients. Patients were scored, as PSA progression (black bars); PSA equal to baseline or decline (<50%) (dark grey bars); PSA response (decline ≥50%) (medium grey bars); clinical response (pain reduction) up to the maximum treatment period permitted in the protocol of 30 weeks (light grey bars).
(§4) A multicenter clinical phase IB/IIA study was conducted in mCRPC (M17DOC), wherein ModraDoc006, an oral docetaxel formulation was combined with ritonavir (ModraDoc006/r), in metastasized castration-resistant prostate cancer (mCRPC).
(§5) The study included patients diagnosed with metastasized castration-resistant prostate cancer (mCRPC), dosed in a bi-daily once weekly (BIDW) dosing schedule at 4 dose levels (see table below).
This study included 20 evaluable patients diagnosed with metastasized castration-resistant prostate cancer (mCRPC), dosed in a bi-daily once weekly (BIDW) dosing schedule at 4 dose levels (see table).

[2] = test system: cancer patients; experiment: Phase I trial N07DOW: treatment duration, SAEs/DLTs, best response; format: in vivo, human; details: n=100
Procedure: (§1) We treated in a phase I trial (N07DOW) cancer patients (n=100) with oral docetaxel in combination with ritonavir. The dose was administered on one day (single dose), once per week. Data presented as mean±standard deviation. If available, kinetic data of 2 cycles per patient were used.
Treatment duration of 19 patients was from 19 up to 72 weeks. These were patients with the following cancers. Head and neck (n=1), non-small cell lung (n=8), anal (n=1), primary unknown (n=3), ovarian (n=1), esophageal (n=1), urothelial cell (n=2), leiomyosarcoma (n=1) and neuroendocrine lung carcinoma (n=1). The docetaxel exposure in these patients was:
(§2) The docetaxel exposure in these patients was:
Fiftytwo patients had SD (stable disease) (n=42) or PR (partial response) (n=10) as best treatment response.

[3] = test system: cancer patients; experiment: Phase I trial N10BOM: treatment duration, SAEs/DLTs, best response; format: in vivo, human; details: n=64
Procedure: (§3) We treated in a phase I trial (N10BOM) cancer patients (n=64) with oral docetaxel in combination with ritonavir. The dose was administered bi-daily once per week continuously.
Treatment duration of 8 patients was from 19 up to 55 weeks. These were patients with the following cancers. Head and neck cancer (n=2; PR), non-small cell lung (n=4; SD), colorectal (n=1; SD) and giant cell neuroendocrine carcinoma (n=1; SD). The docetaxel exposure in these patients was:
as §2
Twentyfive patients had SD or PR as best treatment response.

[4] = Phase I trial N07DOW: docetaxel plasma exposure after oral docetaxel with ritonavir; format: in vivo; details: human, mean±SD; for AUC(0-t): read-out: docetaxel AUC0-48 h
Procedure: as §1

[5] = in vivo
Procedure: The described method was successfully applied in clinical studies with oral administration of docetaxel in combination with ritonavir.
Our next step was to investigate this oral treatment schedule in patients with metastatic Castration Resistant Prostate Cancer (mCRPC) in a phase IB/.IIA trial.
as §4, §5

[6] = Phase I trial N10BOM: docetaxel plasma exposure after oral docetaxel with ritonavir; format: in vivo; details: human; for AUC(0-t): read-out: docetaxel AUC0-48 h
Procedure: as §3

[7] = IV docetaxel q3w AUC in mCRPC patients vs other tumors (De Vries Schultink et al.); details: human, in vivo, weekly equivalent, read-out: weekly AUC of IV docetaxel in mCRPC patients (q3w AUC divided by 3)
Procedure: The target minimum AUC threshold in mCRPC patients is highlighted and ranges from about 600-800 h*ng/mL.

[8] = weekly docetaxel 35 mg/m2 as 0.5 h intravenous infusion; cited from earlier work
[9] = Weekly intravenous docetaxel infusion: AUC and CMAX (Baker et al.); format: in vivo, human; details: IV 35 mg/m2 in 0.5 h vs oral in patients with solid tumors (not prostate)
[10] = cited from earlier work
[11] = oral, 10 patients with SAEs and DLTs (≥grade 3)
[12] = oral, 25 patients with SD or PR as best treatment response
[13] = po, oral docetaxel + ritonavir bi-daily once per week, 8 patients with treatment duration 19 up to 55 weeks

AUC(0-t) ([4]; oral, 52 patients with SD or PR as best treatment response): 1080 ± 1020 ng·h/mL
Cmax ([4]; oral, 52 patients with SD or PR as best treatment response, read-out: docetaxel CMAX): 197 ± 186 ng/mL
AUC(0-t) ([4]; po, oral docetaxel + ritonavir, single dose once per week, 19 patients with treatment duration 19 up to 72 weeks): 803 ± 634 ng·h/mL
Cmax ([4]; po, oral docetaxel + ritonavir, single dose once per week, 19 patients with treatment duration 19 up to 72 weeks, read-out: docetaxel CMAX (peak)): 148 ± 113 ng/mL
docetaxel clearance in mCRPC patient population vs patients with other solid tumors [5]: higher clearance
Cmax [6, 12]: 140 ± 83 ng/mL
AUC(0-t) [6, 12]: 1240 ± 702 ng·h/mL
Cmax [6, 13]: 143 ± 67 ng/mL
AUC(0-t) [6, 13]: 1220 ± 620 ng·h/mL
AUC [7]: ~600 ng·h/mL
CMAX after intravenous administration relative to oral ModraDoc006/r 30-20/100-100 [9]: ten-fold higher
SMILES: CC(=O)O[C@@]12CO[C@@H]1C[C@H](O)[C@@]1(C)C(=O)[C@H](O)C3=C(C)[C@@H](OC(=O)[C@H](O)[C@@H](NC(=O)OC(C)(C)C)c4ccccc4)C[C@@](O)([C@@H](OC(=O)c4ccccc4)[C@H]21)C3(C)C [docetaxel]
length of treatment (number of cycles) in patients in a target docetaxel AUC range [1]: trending longer
patients with PR (partial response) as best treatment response [2]: 10 patients
patients with SAEs and DLTs (possible, probable, definite; ≥grade 3) [2]: 15 patients
patients with SD (stable disease) as best treatment response [2]: 42 patients
patients with SD or PR as best treatment response [2]: Fiftytwo
patients with SAEs and DLTs (possible, probable, definite; ≥grade 3) [3]: 10 patients
patients with SD or PR as best treatment response [3]: Twentyfive
AUC(0-t) ([4]; oral, 15 patients with SAEs and DLTs (≥grade 3)): 2340 ± 1450 ng·h/mL
Cmax ([4]; oral, 15 patients with SAEs and DLTs (≥grade 3), read-out: docetaxel CMAX): 351 ± 244 ng/mL
Cmax [6, 11]: 175 ± 117 ng/mL
AUC(0-t) [6, 11]: 1810 ± 1260 ng·h/mL
AUC [8]: 1480 ± 410 ng·h/mL
ratio of AUCs for IV docetaxel in mCRPC patients vs other tumors ([10]; 1820/3300): 55%
q3w AUC of IV docetaxel in mCRPC patients ([10]; IV, every three weeks): 1820 ng·h/mL
